Laboratory results as given in paper PMC5939191 (Chemical Science, 2018).
Structures can show the parent of a compound that is named as a salt.

Experiment: Apparent aqueous solubility by the dissolution method
Details: water; for solubility: 22 °C, thermodynamic from solid

| SMILES | solubility (unusually high) | solubility [mg/mL] |
| --- | --- | --- |
| CCCC[N+]1(C)[C@@H]2C[C@@H](OC(=O)[C@H](CO)c3ccccc3)C[C@H]1[C@@H]1O[C@@H]12 (stereo partly drawn) [[Bs]Br, Butyl scopolammonium bromide] | more than one gram per milliliter | 1800 ± 200 |
| O=c1n(CCCN2CCN(c3cccc(Cl)c3)CC2)nc2ccccn12 [[TrH]Cl, Trazodone hydrochloride] | – | 38.5 ± 0.2 |
